Measurements as given in paper PMC8143339, “PK/PD Modeling of the PDE7 Inhibitor—GRMS-55 in a Mouse Model of Autoimmune Hepatitis” (Pharmaceutics, 2021).
Read-outs that look alike come from different tables or passages of the source.

Key:
[1] = tested on: PDE7A; assay: in vitro PDE7A inhibition assay; assay type: biochemical; conditions: ratio of IC50 values
[2] = Pharmacokinetic study after IP administration; assay type: in vivo, female BALB/c mice; conditions: for half-life: ip
Experimental: Pharmacokinetics of GRMS-55 was evaluated in female BALB/c mice following intraperitoneal (IP) administration of this compound at doses of 50 and 100 mg·kg^−1. The investigated compound was dissolved in a vehicle composed of DMSO, PEG 400, and water for injection at a ratio of 25:25:50 (v/v/v). Animals were exsanguinated at 5, 15, 30, 60, 90, and 120 min following GRMS-55 administration. Blood samples were collected, allowed to clot for 30 min at room temperature, and centrifuged at 3000× g for 10 min. The serum was separated and stored at −20 °C until analysis.
To analyze GRMS-55 concentrations in the mouse serum, we used the previously developed HPLC method with UV detection. A detailed description of this method was published in a supplementary material of our previous publication. Briefly, 10 μL of 4-(8-((furan-2-ylmethyl)amino)-1,3-dimethyl-2,6-dioxo-1,2,3,6-tetrahydro-7H-purin-7-yl)-N′-(2-hydroxybenzylidene)butanehydrazide solution as internal standard (IS) was added to tubes containing 100 μL of the analyzed serum. The samples were mixed with 20 μL of 1 M hydrochloric acid solution, subjected to extraction with 1 mL of dichloromethane, and centrifuged at 10,000× g for 8 min. The organic layers were transferred to new tubes and evaporated with nitrogen at 37 °C. Dry residues were then dissolved in 100 μL of mobile phase and transferred to glass vial inserts for HPLC analysis (LaChrom Elite, Merck-Hitachi, Darmstadt, Germany). The separation was achieved on a LiChrospher 100 RP-18 (250 × 4 mm) column (particle size of 5 μm) protected with a LiChroCART guard column (Merck, Darmstadt, Germany) using the mobile phase composed of 20 mM solution of KH2PO4 (pH = 4.5) and acetonitrile at a ratio of 45:55 (v/v) pumped at a flow rate of 1 mL min^−1 at ambient temperature. The analytical wavelength was set to 209 nm. In these conditions, the retention time of GRMS-55 was 9.2 min and for IS it was 5.3 min. The analytical method was validated according to FDA Bioanalytical Method Validation, Guidance for Industry. Specificity of the method was estimated by analyzing six different independent samples of the blank serum. […] The calibration curve was constructed by plotting the ratios of the peak area of the studied compound to IS vs. concentrations of GRMS-55 and it was linear in the tested concentration range, i.e., 0.050–20 mg·L^−1. Within runs and between runs, precision and accuracy met the acceptance criteria, i.e., they were less than 15% expressed as coefficients of variation % (CVs%) or ±15% of the nominal concentrations, respectively, for all quality control levels. Recoveries of the analyzed compound and IS assessed by comparing the peak areas of extracted samples with corresponding extracts of blanks spiked with the analyte post-extraction ranged from 94% to 98%. The lower limit of quantification was 0.05 mg·L^−1. GRMS-55 in serum samples was stable at room temperature for at least 12 h and at –20 °C for a period of 12 months. The stock solutions were stable for over one month at 4 °C.
Initially, non-compartmental analysis of the concentration–time data of GRMS-55 was performed. Subsequently, pharmacokinetic modeling was conducted. Different compartmental models with linear and non-linear elimination were tested, and the final pharmacokinetic model with the best goodness-of-fit criteria was chosen. Several measures of goodness-of-fit were evaluated, i.e., value of the objective function, Akaike Information Criterion, Bayesian Information Criterion, visual inspection of fitting, and a precision of parameter estimates expressed as CVs%. Pharmacokinetic model parameters were estimated using the ADAPT 5 software (BMSR, Los Angeles, CA, USA) based on the weighted least squares algorithm. […]

[3] = Assessment of emetogenicity: α2-adrenoceptor agonist-induced anesthesia (xylazine/ketamine); assay type: in vivo, male CD-1 mice; conditions: doses up to 100 mg/kg IP
Experimental: Male CD-1 mice were anesthetized with xylazine (10 mg·kg^−1) and ketamine (80 mg·kg^−1) in saline for injection-administered IP. Fifteen minutes later, the animals were IP-administered with GRMS-55 at doses of 50 or 100 mg·kg^−1, rolipram at a dose of 10 mg·kg^−1, or the corresponding volume of vehicle and subsequently placed in a dorsal recumbency position. The return of the righting reflex (i.e., when the animal turned itself spontaneously to a prone position) was used as an endpoint to measure the duration of anesthesia. In this test, shortening of the sleeping time is a behavioral correlate of emesis.

SMILES: Cn1c(=O)c2c(nc(NCCc3ccccc3)n2CCCC(=O)NN=Cc2ccccc2O)n(C)c1=O [GRMS-55, 4-(1,3-dimethyl-2,6-dioxo-8-(phenethylamino)-1,2,3,6-tetrahydro-7H-purin-7-yl)-N′-(2-hydroxybenzylidene)butanehydrazide]
- times weaker PDE7A inhibitor than BRL-50481 [1]: 3.5
- ka, absorption rate constant ([2]; IP 50 or 100 mg/kg, one-compartment model): 1.49 h⁻¹
- half-life ([2]; female, BALB/c, mouse, serum, mice, IP, read-out: terminal half-life): ~30 min
- half-life ([2]; female, BALB/c, mouse, serum, non-compartmental approach, IP, read-out: serum terminal half-life (converted)): ~30 min
- half-life ([2]; female, BALB/c, mouse, serum, read-out: absorption half-life (ln2/ka)): 27.9 min
- half-life ([2]; female, BALB/c, mouse, serum, read-out: elimination half-life (ln2/ke)): 9.1 min
- Vd/F ([2]; female, BALB/c, mouse, serum, IP 50 or 100 mg/kg, one-compartment model, read-out: Vd/F, apparent volume of distribution): 1.81 L/kg
- k el ([2]; female, BALB/c, mouse, serum, IP 50 or 100 mg/kg, one-compartment model, read-out: ke, elimination rate constant (converted)): 0.00127 s⁻¹
- effect on sleeping time [3]: did not affect
